Experimental data published in patent publication US7915420B2, “Aryl piperidine amides” (Janssen Pharmaceutica NV, priority 2003, dated 2011).

Target: T1, human glycine transporter-2 (GlyT2) (Homo sapiens, UniProt Q9Y345)
T1 construct: The entire coding region of the human GlyT2 cDNA was cloned into the mammalian expression vector pCINeo; expressed in transfected cells; host or cells: Cos-7 cells (African green monkey kidney), stably transfected, vector pCINeo, G418 selection
T1 sequence (Q9Y345 1-797): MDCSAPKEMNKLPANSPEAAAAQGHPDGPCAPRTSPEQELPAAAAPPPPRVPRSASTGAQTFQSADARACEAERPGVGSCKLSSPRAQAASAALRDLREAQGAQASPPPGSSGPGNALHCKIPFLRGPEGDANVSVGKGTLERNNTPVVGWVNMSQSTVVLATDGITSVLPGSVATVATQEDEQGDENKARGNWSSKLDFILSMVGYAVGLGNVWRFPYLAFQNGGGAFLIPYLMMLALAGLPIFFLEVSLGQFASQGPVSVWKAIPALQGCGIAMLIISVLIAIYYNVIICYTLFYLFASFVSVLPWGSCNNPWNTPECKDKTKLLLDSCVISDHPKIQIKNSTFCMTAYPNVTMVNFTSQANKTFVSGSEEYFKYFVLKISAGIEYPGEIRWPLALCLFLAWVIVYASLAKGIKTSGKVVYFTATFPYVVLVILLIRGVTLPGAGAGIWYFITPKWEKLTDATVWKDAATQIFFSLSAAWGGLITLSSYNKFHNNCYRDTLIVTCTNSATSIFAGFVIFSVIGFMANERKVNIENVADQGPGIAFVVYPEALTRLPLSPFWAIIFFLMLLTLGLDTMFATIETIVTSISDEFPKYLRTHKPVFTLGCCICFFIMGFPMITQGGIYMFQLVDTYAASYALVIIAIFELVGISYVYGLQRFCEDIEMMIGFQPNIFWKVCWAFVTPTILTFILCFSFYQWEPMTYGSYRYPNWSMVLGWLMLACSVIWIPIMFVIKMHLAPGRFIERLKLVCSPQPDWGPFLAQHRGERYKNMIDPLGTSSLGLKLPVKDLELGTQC
Assay: GlyT2 inhibitory activity: inhibition of [14C]-glycine uptake in COS-7 cells transfected with human GlyT2
Assay type: cell-based
Details: Cos-7 cells stably transfected with human GlyT2; 20 μM 14C-glycine, 2 h at 37° C.
Experimental: GlyT2 antagonist activity of representative compounds of the invention was determined in accordance with the assay described in the Examples and by measuring the ability of compounds to inhibit the uptake of [^14C]-glycine in COS-7 cells transfected with the human glycine transporter-2 (GlyT2). The GlyT2 antagonist activities of these representative compounds are set forth hereinafter in Table 1.
Cos-7 cells (African green monkey, kidney) from American Type Culture Collection were grown in DMEM supplemented with 10% fetal bovine serum. The entire coding region of the human GlyT2 cDNA was cloned into the mammalian expression vector pCINeo, and then stably transfected into Cos-7 cells. Transfection was performed essentially as described by T. W. Lovenberg et al. (Mol. Pharmacol. 1999, 55:1101-1107). Cells are grown to 70-80% confluence, removed from the plate with trypsin, and pelleted in a clinical centrifuge. The pellet is resuspended in 400 μL complete medium and transferred to an electroporation cuvette with a 0.4 cm gap between the electrodes (Bio-Rad, 165-2088). One microgram of supercoiled GlyT2 cDNA is added to the cells, and the suspension is mixed. The voltage for the electroporation is set at 0.25 kV, and the capacitance is set at 960 μF. After electroporation, the cuvette contents are diluted to 10 mL with complete medium, and 0.5 mL, 1.0 mL, 2.0 mL and remainder (−6.5 mL) portions are plated onto four 10-cm dishes. The cells are incubated 24 h before adding 600 μg/mL G418. Colonies that survive selection are isolated and tested for GlyT2 expression.
The day before the assay, the GlyT2 expressing cells were plated into 96-well scintillating microplates (Amersham, RPNQ 0160) at a density of approximately 20,000 cells per well. Cells were grown overnight at 37° C. in 5% CO2 and then washed once with 37° C. HEPES buffered saline (HBS: 150 mM NaCl, 20 mM HEPES, 1 mM CaCl2, 10 mM glucose, 5 mM KCl, 1 mM MgCl2; pH 7.4). Eighty microliters of 37° C. HBS was subsequently added to each well. Test solutions of GlyT2 inhibitors were prepared in HBS from DMSO stock solutions, and 5 μL of test solution was added to each test well. Total transport and non-specific background were determined by adding 5 μL HBS or 5 μL 2 M glycine, respectively, to the appropriate control wells. Plates were then left at room temperature for 5 min before the addition of 20 μL of 100 μM ^14C-glycine (NEN, NEC 048H) to each well for a final concentration of 20 μM. Plates were incubated for 2 h at 37° C. with 5% CO2. After 2 h the reaction mixtures were removed by aspiration, and the plates were washed once with ice-cold HBS. Plates were sealed with TopSeal (Packard, 6005185) and counted on a Packard TopCount® scintillation counter.

SMILES	IC50
COc1ccccc1-c1ccccc1NCCNCc1cccc(C(=O)N2CCCCC2)c1 [Example 22, (3-{[2-(2′-Methoxy-biphenyl-2-ylamino)-ethylamino]-methyl}-phenyl)-piperidin-1-yl-methanone]	> 10 µM
Nc1ccccc1NCCNCc1cccc(C(=O)N2CCCCC2)c1 [Example 12, (3-{[2-(2-Amino-phenylamino)-ethylamino]-methyl}-phenyl)-piperidin-1-yl-methanone]	> 10 µM
CC(C)Oc1ccccc1NCCNCc1cc(C(=O)N2CCCCC2)cs1 [Example 34, (5-{[2-(2-Isopropoxy-phenylamino)-ethylamino]-methyl}-thiophen-3-yl)-piperidin-1-yl-Methanone]	3.1 µM
Nc1ccccc1NCCNCc1cc(C(=O)N2CCCCC2)cs1 [Example 35, (5-{[2-(2-Amino-phenylamino)-ethylamino]-methyl}-thiophen-3-yl)-piperidin-1-yl-methanone]	> 10 µM
CS(=O)(=O)Nc1ccccc1NCCNCc1cccc(C(=O)N2CCCCC2)c1 [Example 14, N-(2-{2-[3-(Piperidine-1-carbonyl)-benzylamino]-ethylamino}-phenyl)methanesulfonamide]	3.1 µM
CC(C)Oc1ccccc1CCCNCc1cccc(C(=O)N2CCCCC2)c1 [Example 33, (3-{[3-(2-Isopropoxy-phenyl)-propylamino]-methyl}-phenyl)-piperidin-1-yl-methanone]	4 µM
O=C(c1cccc(CNCCNc2ccccc2)c1)N1CCCCC1 [Example 3, {3-[(2-Phenylamino-ethylamino)-methyl]-phenyl}-piperidin-1-yl-methanone]	> 10 µM
CC(C)Oc1cccc(OCCNCc2cccc(C(=O)N3CCCCC3)c2)c1 [Example 26, (3-{[2-(3-Isopropoxy-phenoxy)-ethylamino]-methyl}-phenyl)-piperidin-1-yl-methanone]	7.5 µM
O=C(NCc1ccccc1)Nc1ccccc1NCCNCc1cccc(C(=O)N2CCCCC2)c1 [Example 16, 1-Benzyl-3-(2-{2-[3-(piperidine-1-carbonyl)-benzylamino]-ethylamino}-phenyl)-urea]	3.1 µM
CC(C)Oc1ccccc1NCCNCc1cccc(C(=O)N2CCC(O)CC2)c1 [Example 41, (4-Hydroxy-piperidin-1-yl)-(3-{[2-(2-isopropoxy-phenylamino)-ethylamino]-methyl}-phenyl)-methanone]	> 10 µM
O=C(c1cccc(CNCCNc2ccccc2[N+](=O)[O-])c1)N1CCCCC1 [Example 11, (3-{[2-(2-Nitro-phenylamino)-ethylamino]-methyl}-phenyl)-piperidin-1-yl-methanone]	5 µM
CC(C)Oc1ccccc1N(C)CCN(C)Cc1cccc(C(=O)N2CCCCC2)c1 [Example 29, {3-[({2-[(2-Isopropoxy-phenyl)-methyl-amino]-ethyl}-methyl-amino)-methyl]-phenyl}-piperidin-1-yl-methanone]	> 10 µM
O=C(Nc1ccccc1)Nc1ccccc1NCCNCc1cccc(C(=O)N2CCCCC2)c1 [Example 15, 1-Phenyl-3-(2-{2-[3-(piperidine-1-carbonyl)-benzylamino]-ethylamino}-phenyl)-urea]	> 10 µM
O=C(c1cccc(CNCCNc2cccc(Br)c2)c1)N1CCCCC1 [Example 18, (3-{[2-(3-Bromo-phenylamino)-ethylamino]-methyl}-phenyl)-piperidin-1-yl-methanone]	3.1 µM
CC(C)Nc1ccccc1NCCNCc1cc(C(=O)N2CCCCC2)cs1 [Example 36, (5-{[2-(2-Isopropylamino-phenylamino)-ethylamino]-methyl}-thiophen-3-yl)-piperidinyl-methanone]	3.1 µM
CC(C)Oc1ccccc1N(C)CCNCc1cccc(C(=O)N2CCCCC2)c1 [Example 28, [3-({2-[(2-Isopropoxy-phenyl)-methyl-amino]-ethylamino}-methyl)-phenyl]-piperidinyl-methanone]	3.5 µM

Now those with a lower IC50, led by results:

IC50	SMILES
1 µM	O=C(c1cccc(CNCCNc2ccccc2Br)c1)N1CCCCC1 [Example 17, (3-{[2-(2-Bromo-phenylamino)-ethylamino]-methyl}-phenyl)-piperidin-1-yl-methanone]
1.2 µM	O=C(c1cccc(CNCCNc2ccccc2OC2CCCC2)c1)N1CCCCC1 [Example 7, (3-{[2-(2-Cyclopentyloxy-phenylamino)-ethylamino]-methyl}-phenyl)-piperidin-1-yl-methanone]
0.4 µM	CC(C)Oc1ccccc1OCCCNCc1cccc(C(=O)N2CCCCC2)c1 [Example 25, (3-{[3-(2-Isopropoxy-phenoxy)-propylamino]-methyl}-phenyl)-piperidin-1-yl-methanone]
0.4 µM	CC(C)Oc1ccccc1OCCNCc1cccc(C(=O)N2CCCCC2)c1 [Example 24, (3-{[2-(2-Isopropoxy-phenoxy)-ethylamino]-methyl}-phenyl)-piperidin-1-yl-methanone]
0.4 µM	CC(C)Oc1ccccc1NCCNCc1cccc(C(=O)N2CCCCC2)c1 [Example 1, (3-{[2-(2-Isopropoxy-phenylamino)-ethylamino]-methyl}-phenyl)-piperidin-1-yl-methanone]
1.8 µM	CC(C)Oc1ccccc1NCCNCc1cccc(C(=O)N2CCCCCC2)c1 [Example 39, Azepan-1-yl-(3-{[2-(2-isopropoxy-phenylamino)-ethylamino]-methyl}-phenyl)methanone.]
3 µM	CC(C)Oc1ccccc1NCCNCc1cccc(C(=O)N2CCCC2)c1 [Example 38, (3-{[2-(2-Isopropoxy-phenylamino)-ethylamino]-methyl}-phenyl)-pyrrolidin-1-yl-methanone]
1 µM	CC(C)Oc1cccc(NCCNCc2cccc(C(=O)N3CCCCC3)c2)c1 [Example 10, (3-{[2-(3-Isopropoxy-phenylamino)-ethylamino]-methyl}-phenyl)-piperidin-1-yl-methanone]
1.6 µM	CC(C)Oc1cccc(N(C)CCN(C)Cc2cccc(C(=O)N3CCCCC3)c2)c1 [Example 31, {3-[({2-[(3-Isopropoxy-phenyl)-methyl-amino]-ethyl}-methyl-amino)-methyl]-phenyl}-piperidin-1-yl-methanone]
3 µM	O=C(c1cccc(CNCCNc2ccccc2Oc2ccccc2)c1)N1CCCCC1 [Example 8, (3-{[2-(2-Phenoxy-phenylamino)-ethylamino]-methyl}-phenyl)-piperidin-1-yl-methanone]
3 µM	CCC(CC)Oc1ccccc1NCCNCc1cccc(C(=O)N2CCCCC2)c1 [Example 6, [3-({2-[2-(1-Ethyl-propoxy)-phenylamino]-ethylamino}-methyl)-phenyl]-piperidin-1-yl-methanone]
0.955 µM	O=C(c1cccc(CNCCNc2ccccc2-c2ccsc2)c1)N1CCCCC1 [Example 23, Piperidin-1-yl-(3-{[2-(2-thiophen-3-yl-phenylamino)-ethylamino]-methyl}-phenyl)-methanone]
